Reference: patent US20230309562A1 (priority 2020, published 2023)
Where two headings read alike, the source gives them in different places.

Experiments:
[1] = tested on: infectious microorganism; conditions: cited from earlier work
[2] = tested on: Influenza A; assay type: cell-based
[3] = tested on: SARS COVID-19; assay type: cell-based; conditions: for TCID 50% viral kill: 5-minute exposure
[4] = tested on: Ebola virus; conditions: exposure times of at least several minutes required, cited from earlier work

For `OCl` [HOCl, hypochlorous acid], the growth inhibition ([1]; 2.6 ppm, in 5 minutes) is given as 100%, the LD50 ([1]; reported) is given as 0.0104-0.156 ppm and the “TCID 50% viral kill” value [2] is given as “viral kill positive”. The “virus kill by HOCl treatment” value [2] was “killed”, the “TCID 50% viral kill” value ([3]; 1 ppm) was “viral kill positive” and the “TCID 50% viral kill” value ([3]; 2.5 ppm) was “viral kill positive”. The “TCID 50% viral kill” value ([3]; 10 ppm) was “viral kill positive”, the “TCID 50% viral kill” value ([3]; 25 ppm) was “viral kill positive” and the “virus kill by HOCl treatment” value ([3]; concentrations of between 1 ppm and 25 ppm) was “killed”.

For `OCl` [sodium hypochlorite, Sodium hypochlorite], the “destruction of Ebola virus” value ([4]; 0.5% solution) is given as “effectively destroy” and the “destruction of Ebola virus” value ([4]; 1% solution) is given as “effectively destroy”.
